Data: patent US20260265233A1, “BENZOTHIOPHENE DERIVATIVES AS RXFP1 AGONISTS” (BRISTOL-MYERS SQUIBB COMPANY, priority 2021, published 2026)

Biological target: T1, human RXFP1 (Homo sapiens, UniProt Q9HBX9)
T1 construct: expressed in transfected cells
T1 sequence (Q9HBX9 1-757): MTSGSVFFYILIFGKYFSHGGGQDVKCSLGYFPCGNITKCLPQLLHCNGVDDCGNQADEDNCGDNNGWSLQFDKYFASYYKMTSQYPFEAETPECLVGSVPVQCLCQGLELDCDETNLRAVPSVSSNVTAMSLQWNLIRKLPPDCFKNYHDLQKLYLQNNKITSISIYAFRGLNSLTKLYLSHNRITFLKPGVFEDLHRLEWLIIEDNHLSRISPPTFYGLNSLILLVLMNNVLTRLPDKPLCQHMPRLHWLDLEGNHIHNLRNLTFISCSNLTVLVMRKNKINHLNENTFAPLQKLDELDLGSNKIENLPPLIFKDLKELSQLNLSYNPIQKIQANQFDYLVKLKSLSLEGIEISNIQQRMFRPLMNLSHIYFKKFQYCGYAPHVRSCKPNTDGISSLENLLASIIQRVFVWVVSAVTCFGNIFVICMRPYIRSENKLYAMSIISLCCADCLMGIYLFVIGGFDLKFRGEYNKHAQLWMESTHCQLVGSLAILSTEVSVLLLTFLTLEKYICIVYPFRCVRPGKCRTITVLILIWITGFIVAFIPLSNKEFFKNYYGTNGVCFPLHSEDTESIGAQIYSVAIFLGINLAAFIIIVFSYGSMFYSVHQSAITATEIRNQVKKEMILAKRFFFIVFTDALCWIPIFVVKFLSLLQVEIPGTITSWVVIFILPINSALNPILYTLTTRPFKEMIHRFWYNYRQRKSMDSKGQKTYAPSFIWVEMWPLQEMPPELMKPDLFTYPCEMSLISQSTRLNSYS
Test: hRXFP1 HEK293 cAMP assay (HTRF)
Type: cell-based
Conditions: HEK293 cells stably expressing human RXFP1; 30 min at rt; intracellular cAMP by HTRF
Method in brief: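 HEK293 cells stably expressing human RXFP1 treated 30 min at rt with compound (0.010 nM to 50 μM, 2% DMSO) in HBSS/HEPES buffer with 0.5 mM IBMX. Intracellular cAMP measured by HTRF (665/590 nm ratio) against a cAMP standard curve; potency fitted by 4-parameter logistic.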

| Compound | EC50 [nM] |
| --- | --- |
| COc1ccc(C(=O)N2CCO[C@@H](CO)C2)cc1C(=O)Nc1c(C(=O)Nc2ccc(F)c(C(F)(F)F)c2)sc2cc(C(F)(F)F)ccc12 [Example 129, (R)-N-(4-fluoro-3-(trifluoromethyl)phenyl)-3-(5-(2-(hydroxymethyl)morpholine-4-carbonyl)-2-methoxy-benzamido)-6-(trifluoromethyl) benzo[b] thiophene-2-carboxamide] | 444 |
| COc1ccc(C(=O)N2CC3(C2)CS(=O)(=O)C3)cc1C(=O)Nc1c(C(=O)Nc2ccc(F)c(C(F)(F)F)c2)sc2cc(C(F)(F)F)ccc12 [Example 130, 3-(5-(2,2-dioxido-2-thia-6-azaspiro[3.3]heptane-6-carbonyl)-2-methoxy-benzamido)-N-(4-fluoro-3-(trifluoromethyl)phenyl)-6-(trifluoromethyl) benzo[b] thiophene-2-carboxamide] | 279 |
| COc1ccc(C(=O)NCC2(S(C)(=O)=O)CC2)cc1C(=O)Nc1c(C(=O)Nc2ccc(F)c(C(F)(F)F)c2)sc2cc(C(F)(F)F)ccc12 [Example 131, N3-(2-((4-fluoro-3-(trifluoromethyl)phenyl)carbamoyl)-6-(trifluoromethyl)benzo[b]thiophen-3-yl)-4-methoxy-N1-((1-(methylsulfonyl)cyclopropyl)methyl) isophthalamide] | 51.2 |
| COc1ccc(C(=O)N2CCC(O)CC2)cc1C(=O)Nc1c(C(=O)Nc2ccc(F)c(C(F)(F)F)c2)sc2cc(C(F)(F)F)ccc12 [Example 132, N-(4-fluoro-3-(trifluoromethyl)phenyl)-3-(5-(4-hydroxy-piperidine-1-carbonyl)-2-methoxy-benzamido)-6-(trifluoromethyl) benzo[b] thiophene-2-carboxamide] | 135 |
| COc1ccc(C2CCN(C(=O)C3CC3(F)F)C2)cc1C(=O)Nc1c(C(=O)Nc2ccc(F)c(C(F)(F)F)c2)sc2cc(C(F)(F)F)ccc12 (centres unmarked) [Example 134, 3-(5-(1-(2,2-difluorocyclo-propane-1-carbonyl)pyrrolidin-3-yl)-2-methoxy-benzamido)-N-(4-fluoro-3-(trifluoromethyl)phenyl)-6-(trifluoromethyl) benzo[b] thiophene-2-carboxamide] | 634 |
| COc1ccc(C2CCN(C(=O)C3(C)COC3)C2)cc1C(=O)Nc1c(C(=O)Nc2ccc(F)c(C(F)(F)F)c2)sc2cc(C(F)(F)F)ccc12 (centres unmarked) [Example 135, N-(4-fluoro-3-(trifluoromethyl)phenyl)-3-(2-methoxy-5-(1-(3-methyloxetane-3-carbonyl)pyrrolidin-3-yl)benzamido)-6-(trifluoromethyl) benzo[b] thiophene-2-carboxamide] | 488 |
| COc1ccc(C2CCN(C(=O)CC(C)(C)O)C2)cc1C(=O)Nc1c(C(=O)Nc2ccc(F)c(C(F)(F)F)c2)sc2cc(C(F)(F)F)ccc12 (centres unmarked) [Example 136, N-(4-fluoro-3-(trifluoromethyl)phenyl)-3-(5-(1-(3-hydroxy-3-methylbutanoyl)pyrrolidin-3-yl)-2-methoxy-benzamido)-6-(trifluoromethyl) benzo[b] thiophene-2-carboxamide] | 514 |
| COc1ccc(C2CCN(C(=O)CCO)C2)cc1C(=O)Nc1c(C(=O)Nc2ccc(F)c(C(F)(F)F)c2)sc2cc(C(F)(F)F)ccc12 (centres unmarked) [Example 137, N-(4-fluoro-3-(trifluoromethyl)phenyl)-3-(5-(1-(3-hydroxypropanoyl)pyrrolidin-3-yl)-2-methoxy-benzamido)-6-(trifluoromethyl) benzo[b] thiophene-2-carboxamide] | 591 |
| COc1ccc(C2CCN(C(=O)C3(O)CC3)C2)cc1C(=O)Nc1c(C(=O)Nc2ccc(F)c(C(F)(F)F)c2)sc2cc(C(F)(F)F)ccc12 (centres unmarked) [Example 138, N-(4-fluoro-3-(trifluoromethyl)phenyl)-3-(5-(1-(1-hydroxycyclo-propane-1-carbonyl)pyrrolidin-3-yl)-2-methoxy-benzamido)-6-(trifluoromethyl) benzo[b] thiophene-2-carboxamide] | 213 |
| COc1ccc(C2CCN(C(=O)C(C)(C)O)C2)cc1C(=O)Nc1c(C(=O)Nc2ccc(F)c(C(F)(F)F)c2)sc2cc(C(F)(F)F)ccc12 (centres unmarked) [Example 140, N-(4-fluoro-3-(trifluoromethyl)phenyl)-3-(5-(1-(2-hydroxy-2-methylpropanoyl)pyrrolidin-3-yl)-2-methoxy-benzamido)-6-(trifluoromethyl) benzo[b] thiophene-2-carboxamide] | 97.9 |
| COc1ccc(C2CCN(C(=O)CO)C2)cc1C(=O)Nc1c(C(=O)Nc2ccc(F)c(C(F)(F)F)c2)sc2cc(C(F)(F)F)ccc12 (centres unmarked) [Example 141, N-(4-fluoro-3-(trifluoromethyl)phenyl)-3-(5-(1-(2-hydroxyacetyl)pyrrolidin-3-yl)-2-methoxy-benzamido)-6-(trifluoromethyl) benzo[b] thiophene-2-carboxamide] | 400 |
| COc1ccc(C2CCN(C3COC3)C2)cc1C(=O)Nc1c(C(=O)Nc2ccc(F)c(C(F)(F)F)c2)sc2cc(C(F)(F)F)ccc12 (centres unmarked) [Example 142, N-(4-fluoro-3-(trifluoromethyl)phenyl)-3-(2-methoxy-5-(1-(oxetan-3-yl)pyrrolidin-3-yl)benzamido)-6-(trifluoromethyl) benzo[b] thiophene-2-carboxamide] | 619 |
| COCCC(=O)N1CCC(c2ccc(OC)c(C(=O)Nc3c(C(=O)Nc4ccc(F)c(C(F)(F)F)c4)sc4cc(C(F)(F)F)ccc34)c2)C1 (centres unmarked) [Example 143, N-(4-fluoro-3-(trifluoromethyl)phenyl)-3-(2-methoxy-5-(1-(3-methoxypropanoyl)pyrrolidin-3-yl)benzamido)-6-(trifluoromethyl) benzo[b] thiophene-2-carboxamide] | 1540 |
| COCC(=O)N1CCC(c2ccc(OC)c(C(=O)Nc3c(C(=O)Nc4ccc(F)c(C(F)(F)F)c4)sc4cc(C(F)(F)F)ccc34)c2)C1 (centres unmarked) [Example 144, N-(4-fluoro-3-(trifluoromethyl)phenyl)-3-(2-methoxy-5-(1-(2-methoxyacetyl)pyrrolidin-3-yl)benzamido)-6-(trifluoromethyl) benzo[b] thiophene-2-carboxamide] | 1430 |
| COc1ccc(C2CCN(C(=O)C(F)F)C2)cc1C(=O)Nc1c(C(=O)Nc2ccc(F)c(C(F)(F)F)c2)sc2cc(C(F)(F)F)ccc12 (centres unmarked) [Example 145, 3-(5-(1-(2,2-difluoroacetyl)pyrrolidin-3-yl)-2-methoxy-benzamido)-N-(4-fluoro-3-(trifluoromethyl)phenyl)-6-(trifluoromethyl) benzo[b] thiophene-2-carboxamide] | 1650 |
| COc1ccc(C2CCN(C(=O)CC#N)C2)cc1C(=O)Nc1c(C(=O)Nc2ccc(F)c(C(F)(F)F)c2)sc2cc(C(F)(F)F)ccc12 (centres unmarked) [Example 146, 3-(5-(1-(2-cyanoacetyl)pyrrolidin-3-yl)-2-methoxy-benzamido)-N-(4-fluoro-3-(trifluoromethyl)phenyl)-6-(trifluoromethyl) benzo[b] thiophene-2-carboxamide] | 1100 |
| COc1ccc(C2CCN(CC(N)=O)C2)cc1C(=O)Nc1c(C(=O)Nc2ccc(F)c(C(F)(F)F)c2)sc2cc(C(F)(F)F)ccc12 (centres unmarked) [Example 147, 3-(5-(1-(2-amino-2-oxoethyl)pyrrolidin-3-yl)-2-methoxy-benzamido)-N-(4-fluoro-3-(trifluoromethyl)phenyl)-6-(trifluoromethyl) benzo[b] thiophene-2-carboxamide] | 1430 |
| COc1ccc(C2CCN(S(C)(=O)=O)C2)cc1C(=O)Nc1c(C(=O)Nc2ccc(F)c(C(F)(F)F)c2)sc2cc(C(F)(F)F)ccc12 (centres unmarked) [Example 148, N-(4-fluoro-3-(trifluoromethyl)phenyl)-3-(2-methoxy-5-(1-(methylsulfonyl)pyrrolidin-3-yl)benzamido)-6-(trifluoromethyl) benzo[b] thiophene-2-carboxamide] | 2240 |
| COc1ccc(C2CCN(C(=O)C(C)(C)O)C2)cc1C(=O)Nc1c(C(=O)Nc2ccc(F)c(C(F)(F)F)c2)sc2cc(C(F)(F)F)ccc12 (centres unmarked) [Example 151, N-(4-fluoro-3-(trifluoromethyl)phenyl)-3-(5-(1-(2-hydroxy-2-methylpropanoyl)pyrrolidin-3-yl)-2-methoxy-benzamido)-6-(trifluoromethyl) benzo[b] thiophene-2-carboxamide] | 208 |
| COc1ccc(C2CCN(C(=O)CO)C2)cc1C(=O)Nc1c(C(=O)Nc2ccc(F)c(C(F)(F)F)c2)sc2cc(C(F)(F)F)ccc12 (centres unmarked) [Example 152, N-(4-fluoro-3-(trifluoromethyl)phenyl)-3-(5-(1-(2-hydroxyacetyl)pyrrolidin-3-yl)-2-methoxy-benzamido)-6-(trifluoromethyl) benzo[b] thiophene-2-carboxamide] | 613 |
